Measured values: patent US8044067B2, “Isoquinolines as IGF-1R inhibitors” (Analytecon S.A., priority 2005, dated 2011)

What was measured:
MAPK (Erk1/2) = assay: Inhibition of the phosphorylation of MAPK in DU-145 cells (immunoblotting for phospho-MAPK); format: cell-based; conditions: DU-145 cells (prostate cancer), incubated over night in serum free medium, IGF1 50 nM for 15 minutes
Protocol: DU-145 cells (prostate cancer) were incubated over night with compound 15 in serum free medium. After stimulation for 15 minutes with IGF1 (50 nM), the cells were lyzed and the lysates analysed by immunoblotting for phospho-MAPK.

IGF-1 receptor = target: T1, IGF-1 receptor (Homo sapiens, UniProt P08069); assay: Inhibition of the phosphorylation of the IGF-1 receptor in MCF-7 cells (immunoblotting for phospho-IGF-1R Y1135/1136); format: cell-based; conditions: MCF-7 cells serum starved 20 hours, treated 3 hours, stimulated with 10 nM IGF-1 for 5 minutes
T1 construct: endogenous in cells; host or cells: MCF-7
Protocol: MCF-7 cells were serum starved for 20 hours, treated with compound 15 for 3 hours and finally stimulated with 10 nM IGF-1 for 5 minutes. The cells were lyzed and the lysates analysed by SDS-PAGE and immunoblotting for phospho-IGF-1R is (Y1135/1136).

[1] = system: insulin receptor substrate 1 (IRS-1); assay: Inhibition of the phosphorylation of insulin receptor substrate 1 (IRS-1) in MF-55 cells; format: cell-based; conditions: MF-55 cells (malignant melanoma), 100 ng/ml for one hour, IGF-1 50 ng/ml for 5 minutes
Protocol: MF-55 cells (malignant melanoma) were starved for 20 hours, after which half of the cell mass was incubated with racemic compound 15 (100 ng/ml) for one hour. After activation with IGF-1 (50 ng/ml) for 5 minutes, the two cell samples were lyzed in a special buffer (Upstate Ltd., Dundee, UK) that disrupts the cell membrane as well as the nucleus envelope. After removal of cell debris by centrifugation, the supernatants were analyzed for phosphorylated IRS-1 by Upstate Ltd. The presence of racemic compound 15 lowered the amount of phosphorylated IRS-1 with 20% compared to control. By blocking the function of the IGF-1 receptor, the phosphorylation of the insulin receptor substrate 1 is inhibited.

T1 sequence (P08069 741-1367 limits assumed): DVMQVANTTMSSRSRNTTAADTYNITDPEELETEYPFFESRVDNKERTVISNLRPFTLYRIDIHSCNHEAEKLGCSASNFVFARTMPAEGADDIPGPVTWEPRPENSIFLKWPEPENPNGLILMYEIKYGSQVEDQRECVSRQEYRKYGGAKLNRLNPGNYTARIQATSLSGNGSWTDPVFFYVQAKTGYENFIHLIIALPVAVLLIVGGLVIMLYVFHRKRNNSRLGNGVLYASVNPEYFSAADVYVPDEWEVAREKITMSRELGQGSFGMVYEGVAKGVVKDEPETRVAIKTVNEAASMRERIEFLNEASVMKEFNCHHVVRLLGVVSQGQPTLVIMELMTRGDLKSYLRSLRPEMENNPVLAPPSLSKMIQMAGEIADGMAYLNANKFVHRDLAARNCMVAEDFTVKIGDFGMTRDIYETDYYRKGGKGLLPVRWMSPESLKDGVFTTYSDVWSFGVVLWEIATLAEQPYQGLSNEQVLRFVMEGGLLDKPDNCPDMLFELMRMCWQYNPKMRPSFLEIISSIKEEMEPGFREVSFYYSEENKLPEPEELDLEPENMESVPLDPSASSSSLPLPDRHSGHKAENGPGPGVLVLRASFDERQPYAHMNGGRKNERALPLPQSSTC
T1 sequence (P08069 31-736 limits assumed): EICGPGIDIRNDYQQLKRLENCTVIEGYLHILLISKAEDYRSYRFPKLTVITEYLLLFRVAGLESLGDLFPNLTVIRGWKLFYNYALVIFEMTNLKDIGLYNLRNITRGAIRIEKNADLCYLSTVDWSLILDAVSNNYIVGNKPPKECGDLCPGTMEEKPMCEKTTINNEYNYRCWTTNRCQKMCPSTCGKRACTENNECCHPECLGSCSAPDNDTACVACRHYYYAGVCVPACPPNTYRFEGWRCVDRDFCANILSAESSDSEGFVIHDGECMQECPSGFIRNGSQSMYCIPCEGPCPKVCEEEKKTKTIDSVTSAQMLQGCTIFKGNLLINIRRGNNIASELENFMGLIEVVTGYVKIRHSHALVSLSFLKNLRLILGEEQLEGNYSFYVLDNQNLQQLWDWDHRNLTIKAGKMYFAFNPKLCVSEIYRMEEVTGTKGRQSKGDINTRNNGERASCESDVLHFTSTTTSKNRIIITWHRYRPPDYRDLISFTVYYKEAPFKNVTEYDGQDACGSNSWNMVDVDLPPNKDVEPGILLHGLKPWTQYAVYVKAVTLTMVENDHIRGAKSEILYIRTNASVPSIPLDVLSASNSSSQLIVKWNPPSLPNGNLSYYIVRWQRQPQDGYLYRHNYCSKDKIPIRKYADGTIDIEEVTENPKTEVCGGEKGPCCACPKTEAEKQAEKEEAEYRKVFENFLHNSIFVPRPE

SMILES	IC50 (MAPK (Erk1/2)) [nM]	melting point [°C]	other results
COc1cc([C@@H]2c3cc4c(cc3[C@H](O)[C@H]3COC(=O)[C@@H]23)OCO4)cc(OC)c1OC [Picropodophyllin, reference compound]	~5000	–	–
COc1cc(C2C(=O)N(C)Cc3cc4c(cc32)OCCO4)cc(OC)c1OC (stereo not shown) [Compound 9, 2-methyl-4-(3,4,5-trimethoxyphenyl)-6,7-ethylenedioxy-1,4-dihydro-3(2H)-isoquinolinone]	–	148 to 149	–
COc1ccc2c(c1O)CN(C)C(=O)C2c1cc(OC)c(OC)c(OC)c1 (single isomer, unassigned; (+)) [Compound 15, (+)-2-methyl-4-(3,4,5-trimethoxyphenyl)-8-hydroxy-7-methoxy-1,4-dihydro-3(2H)-isoquinolinone]	~300	–	IC50 (IGF-1 receptor): ~1000 nM
COc1cc(OC)cc(C2C(=O)N(C)Cc3cc(OC)ccc32)c1 (stereo not shown) [Compound 13, 2-methyl-4-(3,5-dimethoxyphenyl)-7-methoxy-1,4-dihydro-3(2H)-isoquinolinone]	–	137 to 139	–
COc1ccc2c(c1O)CN(C)C(=O)C2c1cc(OC)c(OC)c(OC)c1 (racemic) [racemic compound 15, 2-methyl-4-(3,4,5-trimethoxyphenyl)-8-hydroxy-7-methoxy-1,4-dihydro-3(2H)-isoquinolinone]	–	–	lowering of the amount of phosphorylated IRS-1 compared to control [1]: 20%
COc1ccc2c(c1)CN(N)C(=O)C2c1cc(OC)c(OC)c(OC)c1.Cl (stereo not shown)	–	164 to 167	–
